The test has as its system Smn protein. Kind of test: Smn protein assay (Smn HTRF) in cultured cells. The test is classed as cell-based, human. The conditions noted are these: for maximal fold induction / EC (1.5-fold): Homo sapiens, Fibroblast, GM03813 SMA Type 1 patient fibroblasts, 48 hours, HTRF; for maximal fold induction: 7-point concentration data, relative to vehicle, read-out: maximum fold (Fold) increase of Smn protein; for EC (1.5-fold): concentration producing 1.5 times Smn protein vs DMSO vehicle, read-out: EC1.5x for Smn protein expression; for Smn protein expression: SMA Type 1 patient fibroblast cells, 48 hour, SMN HTRF assay, FIG. 6. The procedure, abridged:
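SMA patient fibroblasts (5,000/well) were exposed to a 7-point, 3.16-fold compound dilution series for 48 hours at 37° C, in triplicate. Lysates were read by HTRF with anti-SMN d2/kryptate at 665/620 nm. Blank-corrected signal was expressed as fold over DMSO vehicle, giving the EC1.5x and the maximum fold increase.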

The values that follow come from patent publication US9914722B2, “Compounds for treating spinal muscular atrophy” (PTC Therapeutics Inc., priority 2012, dated 2018).

The structures appear in SMILES notation.

On to `C[C@@H]1CN(c2ccc3oc(-c4cn5ccccc5n4)cc(=O)c3c2)C[C@H](C)N1` [Cpd 17, 6-[(3R,5S)-3,5-dimethylpiperazin-1-yl]-2-(imidazo[1,2-a]pyridin-2-yl)-4H-chromen-4-one], for which the maximal fold induction is more than 1.65, the EC (1.5-fold) lay within 1 to 3 µM and the Smn protein expression result is “dose dependent increase in Smn protein expression”.
Taken in the same sequence, the figures for `COc1ccc(-c2cc(=O)c3cc(N4CCN[C@@H](C)C4)ccc3o2)cc1F` [Cpd 38, 2-(3-fluoro-4-methoxyphenyl)-6-[(3S)-3-methylpiperazin-1-yl]-4H-chromen-4-one] were 1.5 to 1.65, 0.3 to 1 µM and “dose dependent increase in Smn protein expression”.
